Several values for one entry are separate records, joined by “and”; a condition that tells them apart may be missing. Identical values can stand only once. Toxic doses and inconclusive results are not listed.
System: P388 leukemia ip, CD2F1 mice, survival T/C
Assay: NCI In Vivo Anticancer Drug Screen. Data for tumor model P388 Leukemia (intraperitoneal) in CD2F1 (CDF1) mice
Conditions: endpoint: median survival time, higher = longer survival
Outline: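 Mice carrying the transplanted tumor received test compound or vehicle. Survival was recorded in each group, and the value is the treated-group measurement divided by that of the vehicle-treated control group.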

[1] = dose: 50.0 mg/kg/injection, schedule: Q01DX005 (ip), vehicle: saline with Tween-80
[2] = dose: 100.0 mg/kg/injection, schedule: Q01DX005 (ip), vehicle: saline with Tween-80
[3] = dose: 200.0 mg/kg/injection, schedule: Q01DX005 (ip), vehicle: saline with Tween-80
[4] = dose: 50.0 mg/kg/injection, schedule: Q01DX005 (ip), vehicle: Klucel (hydroxypropylcellulose) (HPC)
[5] = dose: 60.0 mg/kg/injection, schedule: Q01DX005 (ip), vehicle: saline with Tween-80
[6] = dose: 120.0 mg/kg/injection, schedule: Q01DX005 (ip), vehicle: saline with Tween-80
[7] = dose: 240.0 mg/kg/injection, schedule: Q01DX005 (ip), vehicle: saline with Tween-80
[8] = dose: 50.0 mg/kg/injection, schedule: Q01DX009 (ip), vehicle: saline
[9] = dose: 100.0 mg/kg/injection, schedule: Q01DX009 (ip), vehicle: saline
[10] = dose: 200.0 mg/kg/injection, schedule: Q01DX009 (ip), vehicle: saline
[11] = dose: 100.0 mg/kg/injection, schedule: Q01DX009 (ip), vehicle: saline with Tween-80
[12] = dose: 200.0 mg/kg/injection, schedule: Q01DX009 (ip), vehicle: saline with Tween-80

Cc1cc2c(c3oc(C4(C)OC4C4OC4C)cc(=O)c13)C(=O)c1c(O)c(C3CC(C)(N(C)C)C(O)C(C)O3)cc(C3CC(N(C)C)C(O)C(C)O3)c1C2=O (stereo not drawn)
T/C (dose: 0.02 mg/kg/injection, schedule: Q01DX005 (ip), vehicle: saline): 150 % of control | T/C (dose: 0.02 mg/kg/injection, schedule: Q03HX008 (ip), vehicle: saline): 122 % of control | T/C (dose: 0.02 mg/kg/injection, schedule: Q03HX016 (ip), vehicle: saline): 113 % of control | T/C (dose: 0.03 mg/kg/injection, schedule: Q01DX009 (ip), vehicle: saline): 95 % of control | T/C (dose: 0.03 mg/kg/injection, schedule: Q03HX008 (ip), vehicle: saline): 118 % of control | T/C (dose: 0.03 mg/kg/injection, schedule: Q03HX016 (ip), vehicle: saline): 109 % of control | T/C (dose: 0.03 mg/kg/injection, schedule: Q04DX003 (ip), vehicle: saline): 150 % of control | T/C (dose: 0.06 mg/kg/injection, schedule: Q01DX005 (ip), vehicle: saline): 100 % of control | T/C (dose: 0.06 mg/kg/injection, schedule: Q01DX009 (ip), vehicle: saline): 104 % of control | T/C (dose: 0.06 mg/kg/injection, schedule: Q03HX008 (ip), vehicle: saline): 122 % of control | T/C (dose: 0.06 mg/kg/injection, schedule: Q04DX003 (ip), vehicle: saline): 150 % of control | T/C (dose: 0.06 mg/kg/injection, schedule: Q08DX002 (ip), vehicle: saline): 150 % of control | T/C (dose: 0.12 mg/kg/injection, schedule: Q01DX001 (ip), vehicle: saline): 150 % of control | T/C (dose: 0.12 mg/kg/injection, schedule: Q03HX016 (ip), vehicle: saline): 113 % of control | T/C (dose: 6.25 micrograms/kg/injection, schedule: Q01DX009 (ip), vehicle: saline): 123 % of control | T/C (dose: 10.0 micrograms/kg/injection, schedule: Q01DX009 (ip), vehicle: water): 99 % of control | T/C (dose: 12.5 micrograms/kg/injection, schedule: Q01DX009 (ip), vehicle: saline): 101 % of control

CCCOC(=O)C1C2CCC(O2)C1C(=O)O (stereo not drawn)
T/C (dose: 6.25 mg/kg/injection, schedule: Q01DX005 (ip), vehicle: saline): 106 % of control | T/C (dose: 12.5 mg/kg/injection, schedule: Q01DX005 (ip), vehicle: saline): 103 % of control

COC(=O)CCC(=O)C(C#N)c1nc2ccccc2s1 (stereo not drawn)
T/C [1]: 94 % of control | T/C [2]: 92 % of control | T/C [3]: 92 % of control

NCCSCCO
T/C (dose: 50.0 mg/kg/injection, schedule: Q01DX005 (ip), vehicle: saline): 98 % of control | T/C (dose: 100.0 mg/kg/injection, schedule: Q01DX005 (ip), vehicle: saline): 100 % of control | T/C (dose: 200.0 mg/kg/injection, schedule: Q01DX005 (ip), vehicle: saline): 99 % of control

CCc1nc(N)nc(N)c1-c1ccc(N(C)C)cc1
T/C (dose: 6.25 mg/kg/injection, schedule: Q01DX005 (ip), vehicle: Klucel (hydroxypropylcellulose) (HPC)): 97 % of control | T/C (dose: 12.5 mg/kg/injection, schedule: Q01DX005 (ip), vehicle: Klucel (hydroxypropylcellulose) (HPC)): 98 % of control | T/C (dose: 25.0 mg/kg/injection, schedule: Q01DX005 (ip), vehicle: Klucel (hydroxypropylcellulose) (HPC)): 96 % of control | T/C [4]: 95 % of control

CSC(=N\N=C\c1cccs1)/N=C/N(C)C
T/C [5]: 92 % of control | T/C [6]: 99 % of control | T/C [7]: 97 % of control

[O-][n+]1ccc(Br)c(/C=C/c2ccccc2)c1
T/C (dose: 30.0 mg/kg/injection, schedule: Q01DX005 (ip), vehicle: saline with Tween-80): 101 % of control | T/C [5]: 101 % of control | T/C [6]: 102 % of control | T/C [7]: 101 % of control

O=C(O)C(CS)NCCNC(CS)C(=O)O (stereo not drawn)
T/C (dose: 12.5 mg/kg/injection, schedule: Q01DX001 (ip), vehicle: Klucel (hydroxypropylcellulose) (HPC)): 97 % of control | T/C (dose: 25.0 mg/kg/injection, schedule: Q01DX001 (ip), vehicle: Klucel (hydroxypropylcellulose) (HPC)): 97 % of control

O=C1c2ccccc2N(C(=O)CN2CCOCC2)CN1c1ccccc1
T/C [8]: 98 % of control | T/C [9]: 100 % of control | T/C [10]: 98 % of control

OC(CN1CCOCC1)c1ccccn1 (stereo not drawn)
T/C [8]: 95 % of control | T/C [9]: 92 % of control | T/C [10]: 92 % of control

CCCCN=C1NS(=O)(=O)c2ccccc21
T/C [1]: 103 % of control | T/C [2]: 107 % of control | T/C [3]: 103 % of control

CCC(/C=C/c1ccc(OC)cc1)=N/Nc1ccccc1
T/C (dose: 30.0 mg/kg/injection, schedule: Q01DX005 (ip), vehicle: other): 109 % of control | T/C (dose: 60.0 mg/kg/injection, schedule: Q01DX005 (ip), vehicle: other): 100 % of control | T/C (dose: 120.0 mg/kg/injection, schedule: Q01DX005 (ip), vehicle: other): 103 % of control and 109 % of control | T/C (dose: 240.0 mg/kg/injection, schedule: Q01DX005 (ip), vehicle: other): 113 % of control

c1ccc2c(c1)N=Nc1ccccc1OCCOCCOCCOCCO2
T/C (dose: 100.0 mg/kg/injection, schedule: Q04DX002 (ip), vehicle: saline with Tween-80): 106 % of control | T/C (dose: 200.0 mg/kg/injection, schedule: Q04DX002 (ip), vehicle: saline with Tween-80): 100 % of control | T/C (dose: 400.0 mg/kg/injection, schedule: Q04DX002 (ip), vehicle: saline with Tween-80): 99 % of control

N#CCCC1CS1 (stereo not drawn)
T/C (dose: 18.75 mg/kg/injection, schedule: Q01DX009 (ip), vehicle: saline with Tween-80): 103 % of control | T/C (dose: 37.5 mg/kg/injection, schedule: Q01DX009 (ip), vehicle: saline with Tween-80): 108 % of control | T/C (dose: 75.0 mg/kg/injection, schedule: Q01DX009 (ip), vehicle: saline with Tween-80): 109 % of control

Nc1ccc(-c2csc(COc3ccccc3)n2)cc1
T/C (dose: 100.0 mg/kg/injection, schedule: Q01DX009 (ip), vehicle: Klucel (hydroxypropylcellulose) (HPC)): 106 % of control | T/C (dose: 200.0 mg/kg/injection, schedule: Q01DX009 (ip), vehicle: Klucel (hydroxypropylcellulose) (HPC)): 103 % of control

CC(=O)OCC1OC(n2cc(C)c(=O)[nH]c2=O)CC1OC(C)=O (stereo not drawn)
T/C [11]: 110 % of control | T/C (dose: 100.0 mg/kg/injection, schedule: Q04DX003 (ip), vehicle: saline with Tween-80): 100 % of control | T/C [12]: 110 % of control | T/C (dose: 200.0 mg/kg/injection, schedule: Q04DX003 (ip), vehicle: saline with Tween-80): 100 % of control | T/C (dose: 400.0 mg/kg/injection, schedule: Q01DX009 (ip), vehicle: saline with Tween-80): 110 % of control | T/C (dose: 400.0 mg/kg/injection, schedule: Q04DX003 (ip), vehicle: saline with Tween-80): 104 % of control

CSC(=S)N/N=C(\C)Cc1ccccn1
T/C (dose: 12.5 mg/kg/injection, schedule: Q01DX005 (ip), vehicle: saline with Tween-80): 102 % of control | T/C (dose: 25.0 mg/kg/injection, schedule: Q01DX005 (ip), vehicle: saline with Tween-80): 100 % of control | T/C [1]: 101 % of control and 95 % of control

CN(C)c1nc(N(C)C)n2c(-c3ccccc3[N+](=O)[O-])nnc2n1
T/C (dose: 50.0 mg/kg/injection, schedule: Q01DX009 (ip), vehicle: saline with Tween-80): 99 % of control | T/C [11]: 102 % of control | T/C [12]: 99 % of control

CC1(C)CC(Nc2ccccc2)=CC(=S)N1
T/C [4]: 100 % of control | T/C (dose: 100.0 mg/kg/injection, schedule: Q01DX005 (ip), vehicle: Klucel (hydroxypropylcellulose) (HPC)): 103 % of control | T/C (dose: 200.0 mg/kg/injection, schedule: Q01DX005 (ip), vehicle: Klucel (hydroxypropylcellulose) (HPC)): 100 % of control

O=CN1CCN(c2ccc([N+](=O)[O-])c3no[n+]([O-])c23)CC1
T/C (dose: 1.87 mg/kg/injection, schedule: Q01DX009 (ip), vehicle: saline): 107 % of control | T/C (dose: 1.87 mg/kg/injection, schedule: Q01DX009 (ip), vehicle: suspension in saline): 94 % of control | T/C (dose: 3.75 mg/kg/injection, schedule: Q01DX009 (ip), vehicle: saline): 92 % of control | T/C (dose: 3.75 mg/kg/injection, schedule: Q01DX009 (ip), vehicle: suspension in saline): 113 % of control | T/C (dose: 7.5 mg/kg/injection, schedule: Q01DX009 (ip), vehicle: saline): 86 % of control | T/C (dose: 7.5 mg/kg/injection, schedule: Q01DX009 (ip), vehicle: suspension in saline): 116 % of control | T/C (dose: 15.0 mg/kg/injection, schedule: Q01DX009 (ip), vehicle: saline): 91 % of control | T/C (dose: 15.0 mg/kg/injection, schedule: Q01DX009 (ip), vehicle: suspension in saline): 116 % of control

O=C(NO)C1(Br)CCCCC1Br (stereo not drawn)
T/C (dose: 100.0 mg/kg/injection, schedule: Q01DX001 (ip), vehicle: Klucel (hydroxypropylcellulose) (HPC)): 91 % of control

From PubChem BioAssay AID330 (DTP/NCI, 2004)
